Experiments:
[1] = target: 5-hydroxytryptamine receptor 6 (Homo sapiens, UniProt P50406); format: cell membranes, HeLa, Membrane; conditions: hela; also: in other assays of this panel Not Active means under 50% inhibition at 10 µM
[2] = target: Protein kinase C alpha type (Homo sapiens, UniProt P17252); format: cell-based; conditions: sf9;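 also: inhibition of PKCalpha kinase activity measured in an enzyme assay with histone as the phosphorylation substrate; in other assays of this panel Not Active means under 50% inhibition at 10 µM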
Substance-K receptor = target: T1, Substance-K receptor (Homo sapiens, UniProt P21452); format: cell membranes, CHO, Membrane; conditions: cho; also: in other assays of this panel Not Active means under 50% inhibition at 10 µM
T1 sequence (P21452 whole entry): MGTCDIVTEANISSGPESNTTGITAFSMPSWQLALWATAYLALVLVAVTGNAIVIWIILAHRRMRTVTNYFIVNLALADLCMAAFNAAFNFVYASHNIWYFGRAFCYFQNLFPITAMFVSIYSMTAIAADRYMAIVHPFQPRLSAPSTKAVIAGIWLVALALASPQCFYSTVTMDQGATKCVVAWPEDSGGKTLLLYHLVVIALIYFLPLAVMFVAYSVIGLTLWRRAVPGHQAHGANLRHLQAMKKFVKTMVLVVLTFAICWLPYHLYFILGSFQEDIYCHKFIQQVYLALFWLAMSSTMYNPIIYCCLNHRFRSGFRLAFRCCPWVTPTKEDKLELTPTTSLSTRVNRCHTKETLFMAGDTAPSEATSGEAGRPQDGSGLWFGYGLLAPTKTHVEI

[3] = target: Epidermal growth factor receptor (Homo sapiens, UniProt P00533); assay: DRUGMATRIX: Protein Tyrosine Kinase, EGF Receptor enzyme inhibition (substrate: Poly(Glu:Tyr)); format: cell-based, Insect cells; conditions: Not Active = under 50% inhibition at 10 µM
[4] = DRUGMATRIX: Phosphodiesterase PDE4 enzyme inhibition (substrate: [3H]cAMP + cAMP); conditions: u-937; Not Active = under 50% inhibition at 10 µM
[5] = target: T2, Amine oxidase [flavin-containing] A (Homo sapiens, UniProt P21397); assay: DRUGMATRIX: Monoamine Oxidase MAO-A enzyme inhibition (substrate: Kynuramine); parameters: species or system BTI-TN-5B1-4; conditions: bti-tn-5b1-4; Not Active = under 50% inhibition at 10 µM
T2 sequence (P21397 whole entry): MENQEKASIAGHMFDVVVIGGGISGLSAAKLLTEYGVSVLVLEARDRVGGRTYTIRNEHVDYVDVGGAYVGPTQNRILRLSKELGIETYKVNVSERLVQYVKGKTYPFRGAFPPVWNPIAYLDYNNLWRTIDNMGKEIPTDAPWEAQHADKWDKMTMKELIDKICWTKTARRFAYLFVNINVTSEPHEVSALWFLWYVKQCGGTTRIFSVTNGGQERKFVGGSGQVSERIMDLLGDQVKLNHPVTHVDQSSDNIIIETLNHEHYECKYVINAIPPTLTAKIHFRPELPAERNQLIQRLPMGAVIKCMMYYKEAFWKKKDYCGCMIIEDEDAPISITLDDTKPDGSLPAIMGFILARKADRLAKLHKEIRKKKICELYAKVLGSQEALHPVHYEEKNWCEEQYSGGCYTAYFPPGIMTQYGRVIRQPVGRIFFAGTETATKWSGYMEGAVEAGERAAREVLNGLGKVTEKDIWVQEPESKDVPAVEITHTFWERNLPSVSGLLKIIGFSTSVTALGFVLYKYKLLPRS

5-hydroxytryptamine receptor 6, sequence (P50406 whole entry): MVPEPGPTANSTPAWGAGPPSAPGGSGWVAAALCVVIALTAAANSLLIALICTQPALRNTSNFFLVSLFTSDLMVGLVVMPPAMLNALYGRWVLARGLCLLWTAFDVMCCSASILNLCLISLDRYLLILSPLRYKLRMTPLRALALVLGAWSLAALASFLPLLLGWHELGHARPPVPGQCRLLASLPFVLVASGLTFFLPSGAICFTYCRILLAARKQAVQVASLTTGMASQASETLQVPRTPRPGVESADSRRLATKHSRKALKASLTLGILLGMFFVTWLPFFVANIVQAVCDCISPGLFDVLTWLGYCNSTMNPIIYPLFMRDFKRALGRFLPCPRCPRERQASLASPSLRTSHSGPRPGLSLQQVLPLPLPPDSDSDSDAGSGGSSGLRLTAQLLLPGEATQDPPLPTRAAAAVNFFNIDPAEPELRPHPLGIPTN

| Compound | IC50 [1] | IC50 [2] | IC50 (Substance-K receptor) | IC50 ([3]; insect cells) | IC50 [4] | Ki [4] | IC50 [5] | IC50 ([3]; read-out: IC50) | Ki [1] | Ki [2] | Ki (Substance-K receptor) | Ki ([3]; insect cells) | Ki [5] | IC50 ([1]; read-out: IC50) | Ki ([1]; read-out: Ki) |
| --- | --- | --- | --- | --- | --- | --- | --- | --- | --- | --- | --- | --- | --- | --- | --- |
| O=C(O)C(Cl)(Cl)Cl [TRICHLOROACETIC ACID] | Not Active | Not Active | Not Active | Not Active | Not Active | Not Active | Not Active |  |  |  |  |  |  |  |  |
| COc1ccc(CN2CCNCC2)c(OC)c1OC [TRIMETAZIDINE] | Not Active | Not Active | Not Active | Not Active | Not Active | Not Active | Not Active |  |  |  |  |  |  |  |  |
| CC(=O)O[C@H]1C[C@@H]2CC[C@@H]3[C@H](CC[C@@]4(C)[C@H]3C[C@H]([N+]3(C)CCCCC3)[C@@H]4OC(C)=O)[C@@]2(C)C[C@@H]1N1CCCCC1.[Br-] [VECURONIUM BROMIDE] | Not Active | Not Active | Not Active | Not Active | Not Active | Not Active | Not Active |  |  |  |  |  |  |  |  |
| COc1cc(C(=O)NS(=O)(=O)c2ccccc2C)ccc1Cc1cn(C)c2ccc(NC(=O)OC3CCCC3)cc12 [ZAFIRLUKAST] | Not Active | Not Active | Not Active |  | Not Active | Not Active | Not Active | 5.75 µM |  |  |  |  |  |  |  |
| STANNOUS FLUORIDE | Not Active | Not Active | Not Active | Not Active | Not Active | Not Active | Not Active |  | Not Active | Not Active | Not Active | Not Active | Not Active |  |  |
| THIMEROSAL |  | Not Active | Not Active | Not Active | Not Active | Not Active | Not Active |  |  | Not Active | Not Active | Not Active | Not Active | 5.94 µM | 2.76 µM |
